# Reference: publication PMC12806164, “Epithelial Heparan Sulfate Promotes Staphylococcus aureus Corneal Infection by Inhibiting Cathelicidins” (Proteoglycan research, 2025)
# No end group written: not given here.
# Assays:
# CRAMP [1] = experiment: Alexa 647-CRAMP binding to Affi-Gel HP beads, competition by HP compounds (flow cytometry); design: species or system mouse; settings: 20 μg/mL competitor, 0.5 μM Alexa 647-conjugated CRAMP, 1 h at room temperature, n = 4
# Protocol: (§1) FIGURE 4 | 2-O-sulfated heparan compounds directly bind to CRAMP with high affinity. Alexa 647-conjugated CRAMP (0.5 μM) was incubated with Affi-Gel HP beads without or with 20 μg/mL of HP, NDS-HP, 2ODS-HP, or 6ODS-HP for 1 h at room temperature. CRAMP fluorescence associated with Affi-Gel HP beads was analyzed by flow cytometry. Results are shown as (A) % CRAMP binding and (B) mean fluorescence intensity (MFI) of CRAMP binding (n = 4, ***p < 0.001, ****p < 0.0001). ITC analyses for CRAMP binding to HP were performed at 25°C using a MicroCal iTC 200 titration calorimetry. The fitted heat curves of titrating CRAMP binding to (C) HP and (D) 2ODS-HP are shown.
# (§2) Affi-Gel HP beads were washed and resuspended in PBS. Affi-Gel HP beads (20 μL) were incubated with 0.5 μM Alexa 647-labeled CRAMP without or with 20 μg/mL HP, chemically desulfated HP, or chemoenzymatically sulfated H for 1 h at room temperature. Affi-Gel HP beads were washed with PBS, and the Alexa 647-labeled CRAMP bound to them was assessed by flow cytometry.
# SMAP-29 = experiment: Inhibition by glycosaminoglycans of S. aureus killing by SMAP-29; assay type: cell-based, sheep; settings: 5 μg/mL glycosaminoglycan, 0.5 μM SMAP-29, ~500 cfu USA300, phosphate buffer pH 7.4, 2 h at 37°C, n = 6
# Protocol: (§3) Samples were plated onto TSA plates, and viable bacteria (cfu) were counted the following day. Data are shown as % bacterial killing, where killing activity in the presence of cathelicidin only represents 100% (n = 6, *p < 0.05, ****p < 0.0001, one-way ANOVA, multiple comparisons).
# (§4) (A) Schematics of HS/HP structure. […] (F) BaclightGreen-labeled S. aureus (~400 cfu) was incubated with 0.5 μM CRAMP without or with 5 μg/mL HP, NDS-HP, 2ODS-HP, 6ODS-HP, H, NS-H, or NS2OS-H for 30 min at room temperature. Bacteria were washed, incubated with 10 μg/mL propidium iodide for 15 min at 4°C, and live (green) and dead (red) bacteria were visualized by fluorescence microscopy.
# (§5) Late log phase S. aureus USA300 was washed with phosphate buffer (8.2 mM Na2HPO4, 1.8 mM KH2PO4, pH 7.4) and approximately 500 cfu were incubated with cathelicidins with or without excess GAGs for 2 h at 37°C as indicated. Viable bacteria were enumerated by plating onto TSA plates and counting colonies the following day. Results are shown as % bacterial killing, where 100% killing represents data derived from the group of bacteria incubated with cathelicidins only.
# CAP-18 = experiment: Inhibition by glycosaminoglycans of S. aureus killing by CAP-18; assay type: cell-based, rabbit; settings: 5 μg/mL glycosaminoglycan, 0.5 μM CAP-18, ~500 cfu USA300, phosphate buffer pH 7.4, 2 h at 37°C, n = 6
# Protocol: as §3, §4, §5
# LL-37 = experiment: Inhibition by glycosaminoglycans of S. aureus killing by LL-37; assay type: cell-based, human; settings: 5 μg/mL glycosaminoglycan, 1 μM LL-37, ~500 cfu USA300, phosphate buffer pH 7.4, 2 h at 37°C, n = 6
# Protocol: as §3, §4, §5
# CRAMP [2] = experiment: Inhibition by glycosaminoglycans of S. aureus killing by CRAMP; assay type: cell-based, mouse; settings: 5 μg/mL glycosaminoglycan, 0.5 μM CRAMP, ~500 cfu USA300, phosphate buffer pH 7.4, 2 h at 37°C, n = 6
# Protocol: as §3, §4, §5
# (§6) Figure S1. A) CRAMP expression was measured in uninfected Wt corneas or Wt corneas isolated at 4 h post-S. aureus USA300 infection. Briefly, eyes were enucleated, corneas were dissected, and isolated corneas were incubated with 10 mg/ml dispase II overnight at 4°C to peel off the corneal epithelium. Total RNA was purified from the corneal epithelium, and 1 ng of total RNA was analyzed by qRT-PCR for CRAMP or β-actin expression (n = 3, **p < 0.01). […] Bacterial killing was measured by plating serial dilutions onto TSA plates and counting colonies the following day. Results are shown as % bacterial survival (n = 4). Figure S2. […] Bacterial killing (%) was enumerated by plating serial dilutions onto TSA plates and counting colonies the following day (n = 5). B) Effects of pre-incubating S. aureus with glycosaminoglycans on bacterial killing by cathelicidins were examined by incubating 500 cfu of USA300 without or with 5 μg/ml HS, HP, DS, or CS for 30 min at 37°C. Bacteria were washed three times with buffer, incubated with 0.5 μM CRAMP for 2 h at 37°C, and % bacterial killing was determined by plating serial dilutions of samples (n = 4). Figure S3. S. aureus USA300 stained with BaclightGreen was incubated with 0.5 μM CRAMP in the absence or presence of 5 μg/ml HP, NDS-HP, 2ODS-HP, 6ODS-HP, H, NS-H, or NS2OS-H for 30 min at room temperature. Bacteria were washed and incubated with 10 μg/ml propidium iodide for 15 min on ice. Images were captured with a fluorescence microscope (Zeiss Axiovert 40 CFL). Quantification of % dead bacteria (out of total bacteria in field) is shown at the bottom. Figure S4. Alexa 647-conjugated CRAMP (0.5 μM) was incubated with fixed S. aureus USA300 without or with 5 μg/ml of the indicated glycosaminoglycans and chemically-desulfated HP compounds for 1 h at room temperature. S. aureus-associated CRAMP fluorescence was analyzed by flow cytometry. Representative FACS density plots are shown where heparan compounds containing 2-O-sulfated motifs decreased Alexa CRAMP binding by over 79% compared to the control (No GAG), except for NDS-HP where the reduction was approximately 65%. Fig. S5. Relative mRNA levels of A) Ndst1 and B) Sdc1 in the corneal epithelium of Hs2st^fl/fl, Krt12Cre, and Hs2st^fl/fl/Krt12Cre mice (n = 3).
# CRAMP [3] = experiment: ITC of HP and 2ODS-HP binding to CRAMP; design: species or system mouse; settings: 25.0°C, 50 mM HEPS pH 7.4, 150 mM NaCl
# Protocol: as §1
# ITC of CRAMP binding to HP and modified HP was carried out at 25.0°C using a MicroCal iTC 200 titration calorimetry system (Malvern, UK). A stock solution of CRAMP was diluted to 12.5 μM in 50 mM HEPS, pH 7.4, 150 mM NaCl, and approximately 300 μL of this solution was loaded into the ITC cell and titrated with 25 μM of HP or 2ODS-HP in the same buffer. Briefly, titration injection of HP or 2ODS-HP consisted of a first injection of 0.4 μL followed by 18 consecutive injections of 2 μL of 0.8 s duration and with a 2.5 min interval between injections. […] The enthalpy change of binding (ΔH), the binding affinity, and the binding stoichiometry were determined.
# CRAMP [4] = experiment: Alexa 647-CRAMP binding to fixed S. aureus, inhibition by glycosaminoglycans (flow cytometry); design: species or system mouse; settings: 0.5 μM Alexa 647-conjugated CRAMP
# Protocol: Alexa 647-conjugated CRAMP (0.5 μM) was incubated with 2% paraformaldehyde-fixed Staphylococcus aureus USA300 without or with 5 μg/mL HP, HS, CS, DS, NDS-HP, 6ODS-HP, or 2ODS-HP for 1 h at room temperature. S. aureus-associated CRAMP fluorescence was analyzed by flow cytometry. Results are shown as % Alexa CRAMP binding (n = 3, ****p < 0.0001).
# Alexa 647 fluorophore was conjugated to CRAMP using the Lightning-Link Rapid FluoProbes647H labeling kit following the manufacturer’s instructions. S. aureus USA300 fixed in 2% paraformaldehyde for 20 min was resuspended in 20 μL of phosphate buffer and incubated with 0.5 μM of Alexa 647-labeled CRAMP for 30 min at room temperature without or with glycosaminoglycans. Unbound Alexa 647-labeled CRAMP was removed by washing with phosphate buffer, and Alexa 647-labeled CRAMP bound to bacteria was assessed by flow cytometry.
# as §6
# [5] = Alexa 647-CRAMP binding to Affi-Gel HP beads, direct and with unlabeled peptides (flow cytometry); settings: 20-fold excess (5 μM) unlabeled peptide, 250 nM Alexa 647-labeled CRAMP, 1 h at room temperature, n = 3–4
# Protocol: FIGURE 5 | Secondary structure of mature CRAMP is required for binding to heparan compounds. (A) Sequence and pI (in parentheses) of the 34 amino acid long mature CRAMP and four 10- or 20-mer peptides that span amino acids 4–13 (CR-1), 13–22 (CR-2), 24–33 (CR-3), or 4–23 (CR-4) of mature CRAMP. (B) Affi-Gel HP beads were incubated with 250 nM of Alexa 647-labeled CRAMP without or with 5 μM of unlabeled CRAMP, heat-treated CRAMP, CR-1, CR-2, CR-3, or CR-4 peptides for 1 h at room temperature. […] (C) ITC analyses of heat-treated CRAMP binding to HP. The fitted heat curve of titrating CRAMP binding to HP is shown. TEXT PRINTED IN THE PICTURE: (A) CRAMP: (10.0) | (A) CR-1: (9.6) | (A) CR-2: (10.6) | (A) CR-3: (5.9) | (A) CR-4: (10.4) DOUBTS OF THE COPYIST ABOUT THIS PICTURE: Panel A: the numbers in brackets after the peptide names are printed without any measure or unit in the picture, so they are given as printed, without a measure.
# as §2
# S. aureus USA300 [6] = experiment: Bacteria live/dead staining (BaclightGreen / propidium iodide); assay type: cell-based, Staphylococcus aureus; settings: 0.5 μM CRAMP without or with 5 μg/mL compound, 30 min at room temperature, propidium iodide 10 μg/mL
# Protocol: as §4
# S. aureus USA300 was stained by BaclightGreen (Thermo Fisher) following the manufacturer’s instructions. Briefly, an overnight culture of S. aureus was resuspended in PBS and incubated with 100 μM BaclightGreen for 15 min at room temperature. […] Bacteria were mounted on glass slides and images were captured with a fluorescence microscope (Zeiss Axiovert 40 CFL). […]
# Figure S1. A) CRAMP expression was measured in uninfected Wt corneas or Wt corneas isolated at 4 h post-S. aureus USA300 infection. […] Total RNA was purified from the corneal epithelium, and 1 ng of total RNA was analyzed by qRT-PCR for CRAMP or β-actin expression (n = 3, **p < 0.01). […] Bacterial killing was measured by plating serial dilutions onto TSA plates and counting colonies the following day. […] Bacteria were washed three times with buffer, incubated with 0.5 μM CRAMP for 2 h at 37°C, and % bacterial killing was determined by plating serial dilutions of samples (n = 4). […] Images were captured with a fluorescence microscope (Zeiss Axiovert 40 CFL). […]
# S. aureus USA300 [7] = experiment: Pre-incubation of S. aureus with glycosaminoglycans, washing, then killing by cathelicidin; assay type: cell-based, Staphylococcus aureus; settings: 5 μg/ml glycosaminoglycan pre-incubated with 500 cfu USA300 30 min at 37°C, washed three times, then 0.5 μM CRAMP 2 h at 37°C, n = 4
# Protocol: Figure S1. A) CRAMP expression was measured in uninfected Wt corneas or Wt corneas isolated at 4 h post-S. aureus USA300 infection. Briefly, eyes were enucleated, corneas were dissected, and isolated corneas were incubated with 10 mg/ml dispase II overnight at 4°C to peel off the corneal epithelium. Total RNA was purified from the corneal epithelium, and 1 ng of total RNA was analyzed by qRT-PCR for CRAMP or β-actin expression (n = 3, **p < 0.01). […] Bacterial killing was measured by plating serial dilutions onto TSA plates and counting colonies the following day. Results are shown as % bacterial survival (n = 4). Figure S2. […] Bacterial killing (%) was enumerated by plating serial dilutions onto TSA plates and counting colonies the following day (n = 5). B) Effects of pre-incubating S. aureus with glycosaminoglycans on bacterial killing by cathelicidins were examined by incubating 500 cfu of USA300 without or with 5 μg/ml HS, HP, DS, or CS for 30 min at 37°C. Bacteria were washed three times with buffer, incubated with 0.5 μM CRAMP for 2 h at 37°C, and % bacterial killing was determined by plating serial dilutions of samples (n = 4). Figure S3. […] Images were captured with a fluorescence microscope (Zeiss Axiovert 40 CFL). Quantification of % dead bacteria (out of total bacteria in field) is shown at the bottom. […] S. aureus-associated CRAMP fluorescence was analyzed by flow cytometry. […]
Substance,Inhibition of CRAMP binding to HP beads (CRAMP [1]),Reduction of mean fluorescence intensity (MFI) of CRAMP binding to HP beads compared to control (CRAMP [1]),Inhibition of S. aureus killing by SMAP-29 (SMAP-29),Inhibition of S. aureus killing by CAP-18 (CAP-18),Inhibition of S. aureus killing by LL-37 (LL-37),Inhibition of S. aureus killing by CRAMP (CRAMP [2]),Heat changes on incubation with CRAMP (ITC) (CRAMP [3]; 12.5 μM CRAMP titrated with 25 μM 2ODS-HP),"Decrease of MFI of Alexa-labeled CRAMP binding to S. aureus compared to control (CRAMP [4]; 5 μg/mL glycosaminoglycan, 2% paraformaldehyde-fixed S. aureus USA300, 1 h at room temperature, n = 3)","Reduction of proportion of CRAMP-bound bacteria (Alexa CRAMP binding, FACS density plots) compared to No GAG (CRAMP [4]; 5 μg/ml glycosaminoglycan, fixed S. aureus USA300, 1 h at room temperature, representative plots)",Inhibition of Alexa CRAMP binding to HP beads by unlabeled peptide [5],Live (green) / dead (red) state of most bacteria (S. aureus USA300 [6]),Inhibition of bacterial killing by cathelicidins after pre-incubation with bacteria and washing away (S. aureus USA300 [7]),"Kd (CRAMP [3]; 12.5 μM CRAMP in cell, titrated with 25 μM HP, read-out: Binding affinity for CRAMP binding to HP (ITC))"
2-O-desulfated HP [2ODS-HP],25%,not,significantly inhibited the ability of HP to inhibit,significantly inhibited the ability of HP to inhibit,significantly inhibited the ability of HP to inhibit,significantly inhibited the ability of HP to inhibit,did not produce significant heat changes,no effect,not,,,,
"CR-4: 20-mer peptide, amino acids 4–23 of mature CRAMP (LAGLLRKGGEKIGEKLKKIG; Cathelicidin antimicrobial peptide; UniProt P51437 138-157, looked up, fragment)",,,,,,,,,,34.7%,,,
GLLRKGGEKIGEKLKKIGQKIKNFFQKLVPQPEQ [CRAMP],,,,,,,,,,92.7%,dead,,
heparin [HP],over 75%,,over 70%,over 70%,over 70%,over 70%,,,,,,did not inhibit,45.2 nM
